Data: patent US8217030B2, “Association of a sinus node if current inhibitor and a beta blocker” (Les Laboratoires Servier, priority 2008, dated 2012)

Tests used:
[1] = tested on: patients with angina pectoris treated with β-blockers; experiment: treadmill exercise tolerance test (ETT), Bruce protocol, clinical study; type: in vivo, human
Description: (§1) The patients selected for this clinical study are men and women from 18 to 75 years of age who have suffered from angina pectoris for at least 3 months and been treated with β-blockers such as atenolol (50 mg o.d.) or any other β-blocker at an equivalent dose for at least 3 months. These patients have, despite their treatment, a positive exercise tolerance test (ETT) and daily symptoms of angina pectoris.
(§2) This double-blind, parallel-group, international clinical study was carried out in 889 patients. The patients, all of whom are receiving atenolol, are randomised into two groups: • in addition to the β-blocker, the first group is given ivabradine (hydrochloride) at a dose of 5 mg twice a day for two months and then at a dose of 7.5 mg twice a day for a further two months; • in addition to the β-blocker, the second group is given a placebo for 4 months.
The patients are subjected to a treadmill exercise tolerance test (ETT) in accordance with the Bruce protocol before ivabradine is administered (that is when receiving β-blocker on its own), and after 4 months of treatment with the association between ivabradine and atenolol. The principal parameters measured in the course of the effort test are: • total exercise duration (TED)—the TED includes the time taken for the treadmill to come to a stop or, that is, a duration of about 10 seconds starting from the patient's request to stop the exercise; • the time until the “angina pectoris” pain forces the patient to stop the exercise (TLA); • the time until the onset of the “angina pectoris” pain (TAO); • the time taken for a 1 mm ST segment depression (TST) to appear on the electrocardiographic recording, this being a reflection of ischaemia and corresponding to the electrical sign of pain in the cardiac muscle.
These measurements are made at trough activity of the association of active ingredients or, that is, 12±1 hours and 24±2 hours after administration of the active ingredients.
The mean improvements in the various parameters measured during the treadmill exercise test, between the value measured before the start of treatment with ivabradine and the end of the treatment period, are set out in the table below: […]

[2] = tested on: patients with angina pectoris treated with β-blockers; experiment: heart rate at rest in clinical study; type: in vivo, human; details: after 4 months of treatment; heart rate at rest on entry 67±7 beats per minute
Description: as §1, §2
The patients have a mean age of 60±8 years. On entry into the study, the mean systolic/diastolic arterial pressure and heart rate of the patients at rest are respectively, on average: 127±12/78±7 mmHg and 67±7 beats per minute. After 4 months of treatment with the association, the heart rate has reduced by 9±10 bpm (β-blocker+placebo 1±10 bpm).

[3] = mean ± SD, before ivabradine vs after 4 months of treatment, on top of atenolol, at trough activity

SMILES: COc1cc2c(cc1OC)CC(=O)N(CCCN(C)C[C@H]1Cc3cc(OC)c(OC)cc31)CC2 [ivabradine, 3-{3-[{[(7S)-3,4-dimethoxybicyclo[4.2.0]octa-1,3,5-trien-7-yl]methyl}(methyl)amino]propyl}-7,8-dimethoxy-1,3,4,5-tetrahydro-2H-3-benzazepin-2-one]
- exercise tolerance ([1]; patients already receiving a standard dose of β-blockers): capable of improving exercise tolerance

SMILES: CC(C)NCC(O)COc1ccc(CC(N)=O)cc1 (stereo not drawn) [β-blocker + placebo, atenolol]
- reduction of heart rate [2]: 1±10 bpm
- Improvement in time taken for a 1 mm ST segment depression (TST) [1, 3]: 15 ± 87 s
- Improvement in time until angina pectoris pain forces the patient to stop the exercise (TLA) [1, 3]: 9 ± 64 s
- Improvement in time until onset of angina pectoris pain (TAO) [1, 3]: 23 ± 79 s
- Improvement in total exercise duration (TED) ([1]; mean ± SD, before ivabradine vs after 4 months of treatment, on top of atenolol, ivabradine 5 mg b.i.d. 2 months then 7.5 mg b.i.d. 2 months, at trough activity): 8 ± 64 s
